Experimental data: publication PMC7855449 (European journal of medicinal chemistry, 2020)

Tests used:
[1] = reported for 1a at 10 mg/kg, oral; cited from earlier work
[2] = Pharmacokinetic studies in mice; assay type: in vivo, female CD-1 mice; conditions: i.p. exposure corrected for PPB
[3] = tested on: patient-derived HGSOC tumor spheroids; assay: Patient derived spheroid assay with Taxol; assay type: cell-based

unbound drug AUC0-7h obs [2]	Compound	AUC0-∞ [1]	single agent toxicity [3]
	CS(=O)(=O)N1CCN(C(=O)c2cnc3ccc(F)cc3c2-c2ccc(C3(C#N)CC3)cc2)CC1 [Compound 1a]	14.6 µM·h	
0.6 µM·h	CC(Sc1nc2nn(C3COC3)cc2c(=O)n1-c1ccccc1)c1ccccc1 (centres unmarked) [Compound 68, 2-(oxetan-3-yl)-5-phenyl-6-((1-phenylethyl)thio)-2H-pyrazolo[3,4-d]pyrimidin-4(5H)-one]		
1.1 µM·h	CC(Sc1nc2nn(C3COC3)cc2c(=O)n1-c1ccccc1)c1ccccn1 (centres unmarked) [Compound 69, 2-(oxetan-3-yl)-5-phenyl-6-((1-(pyridin-2-yl)ethyl)thio)-2H-pyrazolo[3,4-d]pyrimidin-4(5H)-one]		no single agent toxicity
0.5 µM·h	CC(Sc1nc2nn(C3(C)COC3)cc2c(=O)n1-c1ccccc1)c1ccccc1 (centres unmarked) [Compound 74, 2-(3-methyloxetan-3-yl)-5-phenyl-6-((1-phenylethyl)thio)-2H-pyrazolo[3,4-d]pyrimidin-4(5H)-one]		
